Where two headings read alike, the source gives them in different places.
Tests used:
memapsin 2 = memapsin 2 (Homo sapiens, UniProt P56817); test: Inhibition of memapsin 2 beta-secretase activity (fluorogenic substrate FS-2); assay type: biochemical; settings: memapsin 2, pH 4, 37° C., read-out: M2Ki
Procedure, shortened: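 Memapsin 2 pre-incubated 20 min with compound at pH 4, 37° C, then FS-2 substrate (MCA-SEVNLDAEFK-DNP, APP Swedish cleavage site) added. Rate of fluorescence increase compared with uninhibited controls, fitted to a tight-binding inhibition model.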

[1] = tested on: Aβ production in Chinese hamster ovary cells that over-express human APP695 with the London and Swedish mutations; test: Cellular Aβ IC50 determination (Aβ40 sandwich ELISA); assay type: cell-based; settings: cellular Aβ production, read-out: IC50
Experimental: The potency of compounds against memapsin 2 activity was determined in a cellular assay of Aβ production. […] Chinese hamster ovary cells that over-express human APP695 with the London and Swedish mutations were seeded in multi-well plates at 10% confluency. Compounds are dissolved in DMSO to concentrations near 1 mM, and diluted into culture media to a final concentration near 4 μM (final 0.4% DMSO). […] Aliquots were removed and assayed for Aβ40 content using a sandwich ELISA (BioSource International). Amount of Aβ40 over the range of concentration of compounds, relative to control incubations, were fit to a 4-parameter IC50 model.

Chain of memapsin 2 (P56817 46-501): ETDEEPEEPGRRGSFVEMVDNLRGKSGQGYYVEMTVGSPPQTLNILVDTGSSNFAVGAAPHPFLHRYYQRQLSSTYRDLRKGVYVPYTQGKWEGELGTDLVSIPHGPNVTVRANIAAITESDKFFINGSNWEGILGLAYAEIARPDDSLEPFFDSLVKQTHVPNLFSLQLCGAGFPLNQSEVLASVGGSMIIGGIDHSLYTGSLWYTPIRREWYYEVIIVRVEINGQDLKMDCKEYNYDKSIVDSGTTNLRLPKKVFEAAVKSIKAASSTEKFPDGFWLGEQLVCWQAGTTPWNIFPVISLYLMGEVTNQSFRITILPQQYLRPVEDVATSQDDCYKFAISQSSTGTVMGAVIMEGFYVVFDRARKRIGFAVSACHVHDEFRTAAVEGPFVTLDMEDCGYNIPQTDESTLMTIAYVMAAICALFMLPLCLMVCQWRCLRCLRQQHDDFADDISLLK

| Molecule | Ki (memapsin 2; 20 minutes pre-incubation) [nM] | IC50 [1] [nM] | IC50 ([1]; Cricetulus griseus) [nM] | Ki (memapsin 2; fluorogenic substrate FS-2) [nM] |
| --- | --- | --- | --- | --- |
| COc1cccc(CN(C)C[C@@H](O)[C@H](Cc2ccccc2)NC(=O)c2cccc(C(=O)N(C)Cc3nc(C)cs3)c2)c1 [Compound 1, N^1-((2S,3R)-3-hydroxy-4-((3-methoxybenzyl)(methyl)amino)-1-phenylbutan-2-yl)-N^3-methyl-N^3-((4-methylthiazol-2-yl)methyl)isophthalamide] | < 300 | < 1000 | – | – |
| COc1cccc(CNC[C@@H](O)[C@H](Cc2ccccc2)NC(=O)c2cc(C(=O)N(C)Cc3nc(C)cs3)cc(C(C)(C)C)c2)c1 [Compound 2, 5-tert-butyl-N1-((2S,3R)-3-hydroxy-4-(3-methoxybenzylamino)-1-phenylbutan-2-yl)-N3-methyl-N3-((4-methylthiazol-2-yl)methyl)isophthalamide] | < 300 | – | < 1000 | – |
| COc1cccc(CNC[C@@H](O)[C@H](Cc2ccccc2)NC(=O)c2cc(F)cc(C(=O)N(C)Cc3nc(C)cs3)c2)c1 [Compound 4, 5-fluoro-N1-((2S,3R)-3-hydroxy-4-(3-methoxybenzylamino)-1-phenylbutan-2-yl)-N3-methyl-N3-((4-methylthiazol-2-yl)methyl)isophthalamide] | < 300 | – | < 1000 | – |
| Cc1csc(CN(C)C(=O)c2cccc(C(=O)N[C@@H](Cc3ccccc3)[C@H](O)CNCc3cc(C(C)C)ccn3)c2)n1 [Compound 5, N1-((2S,3R)-3-hydroxy-4-((4-isopropylpyridin-2-yl)methylamino)-1-phenylbutan-2-yl)-N3-methyl-N3-((4-methylthiazol-2-yl)methyl)isophthalamide] | < 300 | – | < 1000 | – |
| COc1cccc(CNC[C@@H](O)[C@H](Cc2ccccc2)NC(=O)c2cccc(C(=O)N(C)Cc3ncc(C)s3)c2)c1 [Compound 6, N1-((2S,3R)-3-hydroxy-4-(3-methoxybenzylamino)-1-phenylbutan-2-yl)-N3-methyl-N3-((5-methylthiazol-2-yl)methyl)isophthalamide] | > 501 | – | > 5000 | – |
| COc1cccc(CNC[C@@H](O)[C@H](Cc2ccccc2)NC(=O)c2cc(C)cc(C(=O)N(Cc3nc(C)cs3)C3CC3)c2)c1 [Compound 9, N1-cyclopropyl-N3-((2S,3R)-3-hydroxy-4-(3-methoxybenzylamino)-1-phenylbutan-2-yl)-5-methyl-N1-((4-methylthiazol-2-yl)methyl)isophthalamide] | < 300 | – | < 1000 | – |
| Cc1csc(CN(C)C(=O)c2cccc(C(=O)N[C@@H](Cc3ccccc3)[C@H](O)CNCc3cccc(C(C)C)n3)c2)n1 [Compound 10, N1-((2S,3R)-3-hydroxy-4-((6-isopropylpyridin-2-yl)methylamino)-1-phenylbutan-2-yl)-N3-methyl-N3-((4-methylthiazol-2-yl)methyl)isophthalamide] | < 300 | – | < 1000 | – |
| CCCN(Cc1nc(C)cs1)C(=O)c1cccc(C(=O)N[C@@H](Cc2ccccc2)[C@H](O)CNCc2cccc(OC)c2)c1 [Compound 11, N1-((2S,3R)-3-hydroxy-4-(3-methoxybenzylamino)-1-phenylbutan-2-yl)-N3-((4-methylthiazol-2-yl)methyl)-N3-propylisophthalamide] | < 300 | – | < 1000 | – |
| Cc1csc(CN(C)C(=O)c2cccc(C(=O)N[C@@H](Cc3ccccc3)[C@H](O)CNCc3cccc(C4CC4)c3)c2)n1 [Compound 12, N1-((2S,3R)-4-(3-cyclopropylbenzylamino)-3-hydroxy-1-phenylbutan-2-yl)-N3-methyl-N3-((4-methylthiazol-2-yl)methyl)isophthalamide] | < 300 | – | < 1000 | – |
| CCN(Cc1nc(C)cs1)C(=O)c1cc(OC)cc(C(=O)N[C@@H](Cc2ccccc2)[C@H](O)CNCc2cccc(OC)c2)c1 [Compound 16, N1-ethyl-N3-((2S,3R)-3-hydroxy-4-(3-methoxybenzylamino)-1-phenylbutan-2-yl)-5-methoxy-N1-((4-methylthiazol-2-yl)methyl)isophthalamide] | < 300 | – | < 1000 | – |
| COc1cccc(CNC[C@@H](O)[C@H](Cc2ccccc2)NC(=O)c2cccc(C(=O)N(C)Cc3ccc(C)o3)c2)c1 [Compound 18, N1-((2S,3R)-3-hydroxy-4-(3-methoxybenzylamino)-1-phenylbutan-2-yl)-N3-methyl-N3-((5-methylfuran-2-yl)methyl)isophthalamide] | 301 to 500 | – | < 1000 | – |
| COc1cccc(CNC[C@@H](O)[C@H](Cc2ccccc2)NC(=O)c2cc(C(=O)O)cc(C(=O)N(C)Cc3nc(C)cs3)c2)c1 [Compound 19, 3-((2S,3R)-3-hydroxy-4-(3-methoxybenzylamino)-1-phenylbutan-2-ylcarbamoyl)-5-(methyl((4-methylthiazol-2-yl)methyl)carbamoyl)benzoic acid] | < 300 | – | < 1000 | – |
| C=C(C)c1cncc(CNC[C@@H](O)[C@H](Cc2ccccc2)NC(=O)c2cccc(C(=O)N(C)Cc3nc(C)cs3)c2)c1 [Compound 22, N1-((2S,3R)-3-hydroxy-1-phenyl-4-((5-(prop-1-en-2-yl)pyridin-3-yl)methylamino)butan-2-yl)-N3-methyl-N3-((4-methylthiazol-2-yl)methyl)isophthalamide] | < 300 | – | < 1000 | – |
| Cc1csc(CN(C)C(=O)c2cccc(C(=O)N[C@@H](Cc3ccccc3)[C@H](O)CNCc3cncc(C(F)(F)F)c3)c2)n1 [Compound 23, N1-((2S,3R)-3-hydroxy-1-phenyl-4-((5-(trifluoromethyl)pyridin-3-yl)methylamino)butan-2-yl)-N3-methyl-N3-((4-methylthiazol-2-yl)methyl)isophthalamide] | < 300 | – | < 1000 | – |
| COc1cccc(CNC[C@@H](O)[C@H](Cc2ccccc2)NC(=O)c2cc(OC)cc(C(=O)N(Cc3nc(C)cs3)C(C)C)c2)c1 [Compound 25, N1-((2S,3R)-3-hydroxy-4-(3-methoxybenzylamino)-1-phenylbutan-2-yl)-N3-isopropyl-5-methoxy-N3-((4-methylthiazol-2-yl)methyl)isophthalamide] | < 300 | – | < 1000 | – |
| Cc1csc(CN(C)C(=O)c2cccc(C(=O)N[C@@H](Cc3ccccc3)[C@H](O)CNCc3ccncc3)c2)n1 [Compound 26, N1-((2S,3R)-3-hydroxy-1-phenyl-4-(pyridin-4-ylmethylamino)butan-2-yl)-N3-methyl-N3-((4-methylthiazol-2-yl)methyl)isophthalamide] | > 501 | – | > 5000 | – |
| Cc1csc(CN(C)C(=O)c2cccc(C(=O)N[C@@H](Cc3ccccc3)[C@H](O)CNCc3cc(C(F)(F)F)cc(C(F)(F)F)c3)c2)n1 [Compound 27, N1-((2S,3R)-4-(3,5-bis(trifluoromethyl)benzylamino)-3-hydroxy-1-phenylbutan-2-yl)-N3-methyl-N3-((4-methylthiazol-2-yl)methyl)isophthalamide] | < 300 | – | < 1000 | – |
| Cc1csc(CN(C)C(=O)c2cccc(C(=O)N[C@@H](Cc3ccccc3)[C@H](O)CNCc3cc(F)cc(C(F)(F)F)c3)c2)n1 [Compound 28, N1-((2S,3R)-4-(3-fluoro-5-(trifluoromethyl)benzylamino)-3-hydroxy-1-phenylbutan-2-yl)-N3-methyl-N3-((4-methylthiazol-2-yl)methyl)isophthalamide] | < 300 | – | < 1000 | – |
| Cc1csc(CN(C)C(=O)c2cccc(C(=O)N[C@@H](Cc3ccccc3)[C@H](O)CNCc3cncc(C4CC4)c3)c2)n1 [Compound 30, N1-((2S,3R)-4-((5-cyclopropylpyridin-3-yl)methylamino)-3-hydroxy-1-phenylbutan-2-yl)-N3-methyl-N3-((4-methylthiazol-2-yl)methyl)isophthalamide] | < 300 | – | < 1000 | – |
| CC(C)c1cncc(CNC[C@@H](O)[C@H](Cc2ccccc2)NC(=O)c2cccc(C(=O)N(C)Cc3nccs3)c2)c1 [Compound 318, N1-((2S,3R)-3-hydroxy-4-((5-isopropylpyridin-3-yl)methylamino)-1-phenylbutan-2-yl)-N3-methyl-N3-(thiazol-2-ylmethyl)isophthalamide] | – | – | – | < 300 |
| C=C(C)c1cncc(CNC[C@@H](O)[C@H](Cc2ccccc2)NC(=O)c2cccc(C(=O)N(C)Cc3nc(CO)cs3)c2)c1 [Compound 319, N1-((2S,3R)-3-hydroxy-1-phenyl-4-((5-(prop-1-en-2-yl)pyridin-3-yl)methylamino)butan-2-yl)-N3-((4-(hydroxymethyl)thiazol-2-yl)methyl)-N3-methylisophthalamide] | – | – | – | < 300 |
| CCn1cc(CNC[C@@H](O)[C@H](Cc2ccccc2)NC(=O)c2cccc(C(=O)N(C)Cc3nc(C)cs3)c2)cn1 [Compound 320, N1-((2S,3R)-4-((1-ethyl-1H-pyrazol-4-yl)methylamino)-3-hydroxy-1-phenylbutan-2-yl)-N3-methyl-N3-((4-methylthiazol-2-yl)methyl)isophthalamide] | – | – | – | < 300 |
| N3-((2S,3R)-3-hydroxy-4-(3-methoxybenzylamino)-1-phenylbutan-2-yl)-N1,4-dimethyl-N1-((4-methylthiazol-2-yl)methyl)isophthalamide and N1-((2S,3R)-3-hydroxy-4-(3-methoxybenzylamino)-1-phenylbutan-2-yl)-N3,4-dimethyl-N3-((4-methylthiazol-2-yl)methyl)isophthalamide (regioisomeric mixture) [Compound 42] | > 501 | – | – | – |

Reference: patent US20100286145A1, “ISOPHTHALAMIDE DERIVATIVES INHIBITING BETA-SECRETASE ACTIVITY” (CoMentis, Inc., priority 2007, published 2010)
